System: Tetrahymena pyriformis
Assay: 48 h IGC50 (-log10 mol/L); higher = more toxic

Structure (SMILES) | 48 h IGC50 (-log10 mol/L)
Nc1cc(Cl)c([N+](=O)[O-])cc1O | 4.17
OC(CCl)CCl | 2.21
C=CCOC(=O)C=C | 3.68
CCC(=O)NC | 1.47
CC(C)N | 2.14
O=Cc1ccc([N+](=O)[O-])c(O)c1 | 3.27
Cc1cc2ccccc2n1C | 3.84
Cc1cc2ccccc2o1 | 3.62
CCC#CCC(O)CC (centres undefined) | 2.62
O=[N+]([O-])c1ccc(F)c(F)c1F | 4.89
C/C=C/C(=O)CCCC | 4.01
CCOC(=O)c1ccc(I)cc1 | 4.53
Oc1ccc(Br)cc1 | 3.68
COC(=O)CCCCCCCCC(=O)OC | 4.01
O=C(c1ccccc1O)c1ccccc1O | 4.16
OCCCCCCCCCl | 3.49
NC(=O)c1cccs1 | 2.03
C=CCOC(=O)CC#N | 2.21
CCC(C)CC(=O)O (centres undefined) | 2.77
N#Cc1ccc(-c2ccccc2)cc1 | 4.24
N#CCc1ccc(N)cc1 | 2.24
OCc1cccc2ccccc12 | 3.13
CC(C)c1ccc(C=O)cc1 | 3.67
CCCCCCC#CC(=O)OCC | 4.38
CCOC(=O)c1ccc(C#N)cc1 | 3.37

Structure (SMILES) | 48 h IGC50 (-log10 mol/L)
Brc1ccoc1 | 2.52
Nc1c([N+](=O)[O-])ccc2ncccc12 | 3.92
CC(C)(C)C(=O)O | 2.75
C=CCCC(C)=O | 1.86
N#CCCCCBr | 2.79
CC(C)(C)CC=O | 2.63
CCCCCCN | 2.78
Nc1cc(Cl)ccc1O | 3.78
CC(C)(C)c1cc(N)cc(C(C)(C)C)c1 | 4.44
CCc1cccc2ccccc12 | 3.89
ClCCc1ccccc1 | 3.17
CCOc1cc(O)ccc1OC | 2.7
CCCSc1ccccc1 | 3.86
CCCCCCCCCCO | 4.33
OCC(Cl)Cl | 2.01
COc1ccc(C(C)=O)cc1 | 2.87
Cc1ccc(O)c(Br)c1 | 3.6
CCCCOC(N)=O | 2.03
CCCCC/C=C/C(=O)O | 3.21
O=C(CBr)c1ccc2ccccc2c1 | 5.96
CC(C)CCOC(=O)c1ccc(O)cc1 | 4.48
CCOC(=O)Cc1ccc(O)c(OC)c1 | 2.77
C=CCSc1ccccc1 | 3.69
CNc1ccc(C(=O)OC)cc1 | 3.31
CCCCCl | 2.09

Structure (SMILES) | 48 h IGC50 (-log10 mol/L)
O=[N+]([O-])c1cccc(-c2ccccc2)c1 | 4.57
CCOC(=O)Cc1cccnc1 | 2.06
O=[N+]([O-])c1cc([N+](=O)[O-])c(F)cc1F | 5.08
N#Cc1ccccc1N | 2.5
NC(=O)c1ccc(Cl)cc1 | 3.09
CCOC(=O)C(C)Cl (centres undefined) | 2.57
O=C(O)CCCCCCCBr | 4.32
CCC#CC(C)=O | 4.32
CC(C)CC(=O)O | 2.66
CC(CN)c1ccccc1 (centres undefined) | 2.72
C/C=C/C(=O)OC(C)CC (centres undefined) | 2.58
CCOC(=O)c1ccccn1 | 2.08
CN(C)c1ccc(C=O)cc1 | 3.23
O=[N+]([O-])c1ccc(Br)cc1 | 3.38
Cc1cccc(C=O)c1 | 3.08
Cc1c(C)c(O)c(C)c(C)c1O | 4.28
CCCCC(O)CO (centres undefined) | 1.73
OCc1ccc(Cl)cc1 | 3.25
C=COC(=O)C(=C)C | 2.38
CCCCCCN=C=S | 4.75
O=C(O)c1cc(Cl)cc(Cl)c1 | 3.27
N#CCCc1ccccc1 | 2.84
CCCCCCCCCCC#CCCO | 5.38
CCCCCOC(=O)c1ccccc1 | 4.37
C=CC(=O)CCCCC | 4.92

Structure (SMILES) | 48 h IGC50 (-log10 mol/L)
Cc1ccc(O)c([N+](=O)[O-])n1 | 3.39
Nc1ccc(O)c(N)c1 | 3.13
O=C(CO)c1ccccc1 | 3.08
CCC(O)c1ccccc1 (centres undefined) | 2.57
Nc1cc(F)c([N+](=O)[O-])cc1[N+](=O)[O-] | 4.69
CCCCNC(=S)NCCCC | 3.86
Cc1c(O)ccc(O)c1C | 4.41
Cc1ccc2nc(C)ccc2c1 | 3.68
C=CCCCO | 1.78
CC(C)C#N | 1.38
c1cnc2ccc3ncccc3c2c1 | 4.14
Cc1ccc(N)cc1Cl | 3.39
CCc1cccs1 | 2.57
CC(C)=CCO | 1.76
CC(C)(CO)CCl | 2.22
O=C(NO)c1ccccc1O | 3.38
CNC(C)=O | 1.02
COc1ccc(C=O)cc1 | 2.95
CC#CC(C)(O)CCC (centres undefined) | 2.52
CCC#CC(C)O (centres undefined) | 3.51
O=C(/C=C/c1ccccc1)N=C=S | 3.29
CCCCS(=O)CCCC | 2.74
O=[N+]([O-])/C=C/c1ccco1 | 5.04
N#Cc1ccccc1Cl | 3.28

— EPA's aquatic toxicity sets
